PMC6874179, “Development of Macrocycle Kinase Inhibitors for ALK2 Using Fibrodysplasia Ossificans Progressiva‐Derived Endothelial Cells” (JBMR Plus, 2019)

How the values were obtained:
Test in all cases: Proqinase Kinase profiling
Assay type in all cases: biochemical
Settings in all cases: read-out: % inhibition at 100nM
ACVR1 = target: T1, ACVR1 (Homo sapiens, UniProt Q04771)
T1 construct: purchased DiscoverX

LRRK2_G2019S = target: T2, LRRK2_G2019S (Homo sapiens, UniProt Q5S007, G2019S)
T2 construct: purchased DiscoverX

PRKX = target: T3, PRKX (Homo sapiens, UniProt P51817)
T3 construct: purchased DiscoverX

ACVR2B = target: T4, ACVR2B (Homo sapiens, UniProt Q13705)
T4 construct: T7 phage fusion (or DNA tag for qPCR if made in HEK-293); purchased DiscoverX; host or cells: E. coli (T7 phage) or HEK-293

WNK2 = target: T5, WNK2 (Homo sapiens, UniProt Q9Y3S1)
T5 construct: purchased DiscoverX

MELK = target: T6, MELK (Homo sapiens, UniProt Q14680)
T6 construct: purchased DiscoverX

CAMK2B = target: T7, CAMK2B (Homo sapiens, UniProt Q13554)
T7 construct: purchased DiscoverX

PRKCG = target: T8, PRKCG (Homo sapiens, UniProt P05129)
T8 construct: purchased DiscoverX

SLK = target: T9, SLK (Homo sapiens, UniProt Q9H2G2)
T9 construct: purchased DiscoverX

PRKCA = target: T10, PRKCA (Homo sapiens, UniProt P17252)
T10 construct: purchased DiscoverX

ABL1_E255K = target: T11, ABL1_E255K (Homo sapiens, UniProt P00519, E255K)
T11 construct: purchased DiscoverX

MAP2K2 = target: T12, MAP2K2 (Homo sapiens, UniProt P36507)
T12 construct: purchased DiscoverX

DDR2 = target: T13, DDR2 (Homo sapiens, UniProt Q16832)
T13 construct: purchased DiscoverX

MET_D1228N = target: T14, MET_D1228N (Homo sapiens, UniProt P08581, D1228N)
T14 construct: purchased DiscoverX

STK39 = target: T15, STK39 (Homo sapiens, UniProt Q9UEW8)
T15 construct: purchased DiscoverX

LCK = target: T16, LCK (Homo sapiens, UniProt P06239)
T16 construct: purchased DiscoverX

LIMK2 = target: T17, LIMK2 (Homo sapiens, UniProt P53671)
T17 construct: purchased DiscoverX

CDK1_cyclinA2 = target: T18, CDK1_cyclinA2 (Homo sapiens, UniProt P06493)
T18 construct: purchased DiscoverX

ABL1_Q252H = target: T19, ABL1_Q252H (Homo sapiens, UniProt P00519, Q252H)
T19 construct: purchased DiscoverX

MAPK14 = target: T20, MAPK14 (Homo sapiens, UniProt Q16539)
T20 construct: purchased DiscoverX

ABL1 = target: T21, ABL1 (Homo sapiens, UniProt P00519)
T21 construct: purchased DiscoverX

MAPK1 = target: T22, MAPK1 (Homo sapiens, UniProt P28482)
T22 construct: purchased DiscoverX

BRSK1 = target: T23, BRSK1 (Homo sapiens, UniProt Q8TDC3)
T23 construct: purchased DiscoverX

FRAP1 = target: T24, FRAP1 (Homo sapiens, UniProt P42345)
T24 construct: purchased DiscoverX

CDK5_p25 = target: T25, CDK5_p25 (Homo sapiens, UniProt Q00535)
T25 construct: purchased DiscoverX

CHEK2 = target: T26, CHEK2 (Homo sapiens, UniProt O96017)
T26 construct: purchased DiscoverX

TLK2 = target: T27, TLK2 (Homo sapiens, UniProt Q86UE8)
T27 construct: purchased DiscoverX

PRKCB1_I = target: T28, PRKCB1_I (Homo sapiens, UniProt P05771)
T28 construct: purchased DiscoverX

FRK = target: T29, FRK (Homo sapiens, UniProt P42685)
T29 construct: purchased DiscoverX

TSSK1B = target: T30, TSSK1B (Homo sapiens, UniProt Q9BXA7)
T30 construct: purchased DiscoverX

PRKG1 = target: T31, PRKG1 (Homo sapiens, UniProt Q13976)
T31 construct: purchased DiscoverX

DYRK1B = target: T32, DYRK1B (Homo sapiens, UniProt Q9Y463)
T32 construct: purchased DiscoverX

PDK1 = target: T33, PDK1 (Homo sapiens, UniProt O15530)
T33 construct: purchased DiscoverX

CHEK1 = target: T34, CHEK1 (Homo sapiens, UniProt O14757)
T34 construct: purchased DiscoverX

MAPK8 = target: T35, MAPK8 (Homo sapiens, UniProt P45983)
T35 construct: purchased DiscoverX

MERTK = target: T36, MERTK (Homo sapiens, UniProt Q12866)
T36 construct: purchased DiscoverX

RPS6KA3 = target: T37, RPS6KA3 (Homo sapiens, UniProt P51812)
T37 construct: purchased DiscoverX

EGFR = target: T38, EGFR (Homo sapiens, UniProt P00533)
T38 construct: purchased DiscoverX

EGFR_S752-I759del = target: T39, EGFR_S752-I759del (Homo sapiens, UniProt P00533, DEL752-759)
T39 construct: purchased DiscoverX

ALK_F1174S = target: T40, ALK_F1174S (Homo sapiens, UniProt Q9UM73, F1174S)
T40 construct: purchased DiscoverX

FES = target: T41, FES (Homo sapiens, UniProt P07332)
T41 construct: purchased DiscoverX

TEK_Y897S = target: T42, TEK_Y897S (Homo sapiens, UniProt Q02763, Y897S)
T42 construct: purchased DiscoverX

T20 sequence (Q16539 whole entry): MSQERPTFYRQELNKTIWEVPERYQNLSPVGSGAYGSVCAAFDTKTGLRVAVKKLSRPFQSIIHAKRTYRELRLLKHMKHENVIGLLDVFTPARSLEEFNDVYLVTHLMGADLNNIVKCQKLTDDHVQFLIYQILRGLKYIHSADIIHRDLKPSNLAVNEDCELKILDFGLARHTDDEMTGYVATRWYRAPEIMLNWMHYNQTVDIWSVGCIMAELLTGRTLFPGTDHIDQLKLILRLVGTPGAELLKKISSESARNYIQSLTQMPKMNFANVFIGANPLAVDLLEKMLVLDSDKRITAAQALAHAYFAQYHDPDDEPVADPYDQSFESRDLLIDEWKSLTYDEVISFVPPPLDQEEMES
T33 sequence (O15530 whole entry): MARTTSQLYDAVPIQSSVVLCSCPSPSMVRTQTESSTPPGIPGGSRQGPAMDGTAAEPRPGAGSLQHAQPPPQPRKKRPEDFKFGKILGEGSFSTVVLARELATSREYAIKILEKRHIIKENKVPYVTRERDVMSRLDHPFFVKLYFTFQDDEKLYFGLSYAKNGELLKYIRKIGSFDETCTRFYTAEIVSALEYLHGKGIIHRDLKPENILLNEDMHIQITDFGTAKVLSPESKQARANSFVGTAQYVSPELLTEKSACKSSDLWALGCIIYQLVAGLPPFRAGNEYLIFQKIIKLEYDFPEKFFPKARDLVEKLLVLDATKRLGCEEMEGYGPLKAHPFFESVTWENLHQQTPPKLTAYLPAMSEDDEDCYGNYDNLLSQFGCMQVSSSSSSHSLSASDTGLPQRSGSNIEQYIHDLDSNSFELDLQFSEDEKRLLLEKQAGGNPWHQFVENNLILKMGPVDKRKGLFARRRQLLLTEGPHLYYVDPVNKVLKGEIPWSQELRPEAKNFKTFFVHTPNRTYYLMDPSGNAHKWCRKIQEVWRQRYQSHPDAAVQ
T29 sequence (P42685 whole entry): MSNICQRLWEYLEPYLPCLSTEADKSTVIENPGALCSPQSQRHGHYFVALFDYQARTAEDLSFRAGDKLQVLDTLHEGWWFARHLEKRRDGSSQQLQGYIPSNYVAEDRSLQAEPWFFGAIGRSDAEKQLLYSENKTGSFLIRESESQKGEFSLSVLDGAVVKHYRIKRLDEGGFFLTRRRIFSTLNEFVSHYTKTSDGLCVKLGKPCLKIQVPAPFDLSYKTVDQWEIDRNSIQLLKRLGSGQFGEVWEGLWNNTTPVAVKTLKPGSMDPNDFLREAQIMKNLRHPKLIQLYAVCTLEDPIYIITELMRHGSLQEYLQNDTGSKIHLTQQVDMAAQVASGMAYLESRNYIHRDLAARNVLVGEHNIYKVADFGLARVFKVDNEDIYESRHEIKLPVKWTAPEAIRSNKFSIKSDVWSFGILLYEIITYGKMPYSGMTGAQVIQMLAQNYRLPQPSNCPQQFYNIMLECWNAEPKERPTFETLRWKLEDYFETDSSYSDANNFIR
T1 sequence (Q04771 21-509): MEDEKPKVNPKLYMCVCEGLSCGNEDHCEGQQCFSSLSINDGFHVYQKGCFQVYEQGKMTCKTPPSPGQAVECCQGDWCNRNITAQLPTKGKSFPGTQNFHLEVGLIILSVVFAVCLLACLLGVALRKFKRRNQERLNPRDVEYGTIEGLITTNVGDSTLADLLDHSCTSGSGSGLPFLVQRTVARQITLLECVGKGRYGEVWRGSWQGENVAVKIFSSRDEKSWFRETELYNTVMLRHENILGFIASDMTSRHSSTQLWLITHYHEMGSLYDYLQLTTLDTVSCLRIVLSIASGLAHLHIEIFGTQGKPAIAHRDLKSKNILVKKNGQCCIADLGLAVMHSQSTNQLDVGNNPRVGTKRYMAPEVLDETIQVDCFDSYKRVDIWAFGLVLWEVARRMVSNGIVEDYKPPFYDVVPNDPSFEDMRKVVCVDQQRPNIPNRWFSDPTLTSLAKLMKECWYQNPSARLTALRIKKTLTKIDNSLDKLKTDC
T30 sequence (Q9BXA7 whole entry): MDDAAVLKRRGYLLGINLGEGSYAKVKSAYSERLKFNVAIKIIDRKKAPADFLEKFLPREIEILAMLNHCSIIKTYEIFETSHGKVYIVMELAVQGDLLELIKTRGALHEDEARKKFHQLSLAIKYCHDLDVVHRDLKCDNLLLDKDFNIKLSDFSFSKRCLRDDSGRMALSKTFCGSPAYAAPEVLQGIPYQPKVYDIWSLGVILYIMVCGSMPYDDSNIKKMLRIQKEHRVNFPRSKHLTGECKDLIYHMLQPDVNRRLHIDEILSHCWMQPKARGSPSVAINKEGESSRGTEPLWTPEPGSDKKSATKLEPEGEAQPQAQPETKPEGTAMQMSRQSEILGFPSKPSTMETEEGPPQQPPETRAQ
T13 sequence (Q16832 22-855): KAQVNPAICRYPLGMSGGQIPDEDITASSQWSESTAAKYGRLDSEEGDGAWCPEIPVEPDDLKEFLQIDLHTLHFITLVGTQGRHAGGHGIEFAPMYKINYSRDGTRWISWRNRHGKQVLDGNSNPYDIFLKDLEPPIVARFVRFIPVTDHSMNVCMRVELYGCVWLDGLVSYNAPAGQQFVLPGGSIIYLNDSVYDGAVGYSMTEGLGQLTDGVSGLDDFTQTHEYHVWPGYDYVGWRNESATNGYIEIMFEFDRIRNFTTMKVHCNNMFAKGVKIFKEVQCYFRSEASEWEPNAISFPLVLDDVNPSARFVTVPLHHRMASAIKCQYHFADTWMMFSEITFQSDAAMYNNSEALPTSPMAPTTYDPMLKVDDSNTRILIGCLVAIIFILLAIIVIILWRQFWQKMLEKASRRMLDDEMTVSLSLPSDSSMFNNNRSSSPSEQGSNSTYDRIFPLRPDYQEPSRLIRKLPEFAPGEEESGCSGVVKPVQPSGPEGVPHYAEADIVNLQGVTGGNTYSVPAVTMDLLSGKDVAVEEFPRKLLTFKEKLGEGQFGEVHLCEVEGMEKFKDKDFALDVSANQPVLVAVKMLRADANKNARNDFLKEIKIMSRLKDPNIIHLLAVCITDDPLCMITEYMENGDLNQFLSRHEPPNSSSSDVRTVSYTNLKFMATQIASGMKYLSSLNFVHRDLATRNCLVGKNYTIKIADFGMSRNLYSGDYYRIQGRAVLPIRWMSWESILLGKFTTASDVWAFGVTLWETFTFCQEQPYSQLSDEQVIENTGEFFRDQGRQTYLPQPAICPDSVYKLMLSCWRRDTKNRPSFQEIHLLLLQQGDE
T3 sequence (P51817 whole entry): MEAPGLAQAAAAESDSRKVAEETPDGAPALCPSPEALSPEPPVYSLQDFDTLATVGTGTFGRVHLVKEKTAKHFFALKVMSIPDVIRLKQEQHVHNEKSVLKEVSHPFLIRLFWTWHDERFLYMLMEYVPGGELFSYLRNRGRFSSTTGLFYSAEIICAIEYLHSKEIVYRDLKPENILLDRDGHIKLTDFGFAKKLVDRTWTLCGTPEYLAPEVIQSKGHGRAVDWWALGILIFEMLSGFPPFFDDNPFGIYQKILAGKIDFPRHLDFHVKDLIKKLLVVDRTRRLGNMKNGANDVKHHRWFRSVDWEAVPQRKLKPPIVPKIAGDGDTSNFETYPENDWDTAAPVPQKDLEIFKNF
T6 sequence (Q14680 whole entry): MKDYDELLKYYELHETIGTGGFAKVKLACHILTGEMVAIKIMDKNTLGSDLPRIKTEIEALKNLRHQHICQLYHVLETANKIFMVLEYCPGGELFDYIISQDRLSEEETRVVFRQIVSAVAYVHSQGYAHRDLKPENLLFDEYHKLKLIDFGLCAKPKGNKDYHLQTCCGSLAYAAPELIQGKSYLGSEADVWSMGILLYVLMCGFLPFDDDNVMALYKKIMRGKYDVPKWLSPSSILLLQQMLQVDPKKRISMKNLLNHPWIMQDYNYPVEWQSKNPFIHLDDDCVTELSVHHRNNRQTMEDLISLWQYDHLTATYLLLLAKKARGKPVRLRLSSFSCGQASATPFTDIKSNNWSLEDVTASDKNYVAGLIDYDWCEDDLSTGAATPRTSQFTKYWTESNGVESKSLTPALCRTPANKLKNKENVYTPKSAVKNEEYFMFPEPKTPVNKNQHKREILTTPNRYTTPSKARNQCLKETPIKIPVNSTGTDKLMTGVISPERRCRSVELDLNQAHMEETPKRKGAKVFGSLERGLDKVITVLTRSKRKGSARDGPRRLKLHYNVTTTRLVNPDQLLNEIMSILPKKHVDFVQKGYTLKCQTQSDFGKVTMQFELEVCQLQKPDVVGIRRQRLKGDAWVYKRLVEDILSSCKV

With `Clc1cc2cc(c1)-c1cnn3ccc(nc13)NCCOCCO2` [OD36] the inhibition at 0.1 µM (ACVR1) was 95%, the inhibition at 0.1 µM (LRRK2_G2019S) was 61% and the inhibition at 0.1 µM (PRKX) was 17%. It also gave an inhibition at 0.1 µM (ACVR2B) of 90%, an inhibition at 0.1 µM (WNK2) of 1% and an inhibition at 0.1 µM (MELK) of 21%. For the same molecule, the inhibition at 0.1 µM (CAMK2B) was 32%, the inhibition at 0.1 µM (PRKCG) was 16% and the inhibition at 0.1 µM (SLK) was 13%. It also gave an inhibition at 0.1 µM (PRKCA) of 26%, an inhibition at 0.1 µM (ABL1_E255K) of -2% and an inhibition at 0.1 µM (MAP2K2) of -7%. It also gave an inhibition at 0.1 µM (DDR2) of 59%, an inhibition at 0.1 µM (MET_D1228N) of 4% and an inhibition at 0.1 µM (STK39) of 0%. It also gave an inhibition at 0.1 µM (LCK) of 48%, an inhibition at 0.1 µM (LIMK2) of 6% and an inhibition at 0.1 µM (CDK1_cyclinA2) of 11%. The inhibition at 0.1 µM (ABL1_Q252H) was 33%, the inhibition at 0.1 µM (MAPK14) was -4% and the inhibition at 0.1 µM (ABL1) was 3%. The inhibition at 0.1 µM (MAPK1) was 10%, the inhibition at 0.1 µM (BRSK1) was 8% and the inhibition at 0.1 µM (FRAP1) was 14%. For the same molecule, the inhibition at 0.1 µM (CDK5_p25) was 10%, the inhibition at 0.1 µM (CHEK2) was 8% and the inhibition at 0.1 µM (TLK2) was 31%. For the same molecule, the inhibition at 0.1 µM (PRKCB1_I) was 7%, the inhibition at 0.1 µM (FRK) was 35% and the inhibition at 0.1 µM (TSSK1B) was 9%. The inhibition at 0.1 µM (PRKG1) was 3%, the inhibition at 0.1 µM (DYRK1B) was 13% and the inhibition at 0.1 µM (PDK1) was 4%. It also gave an inhibition at 0.1 µM (CHEK1) of 11%, an inhibition at 0.1 µM (MAPK8) of -6% and an inhibition at 0.1 µM (MERTK) of 15%. It also gave an inhibition at 0.1 µM (RPS6KA3) of 11%, an inhibition at 0.1 µM (EGFR) of 3% and an inhibition at 0.1 µM (EGFR_S752-I759del) of 17%. For the same molecule, the inhibition at 0.1 µM (ALK_F1174S) was 13%, the inhibition at 0.1 µM (FES) was 9% and the inhibition at 0.1 µM (TEK_Y897S) was 12%.
For `Cc1cc2cc(c1)-c1cnn3ccc(nc13)NCCNC(=O)CCN(C)C2` [OD52], the inhibition at 0.1 µM (ACVR1) was 90%, the inhibition at 0.1 µM (LRRK2_G2019S) was 39% and the inhibition at 0.1 µM (PRKX) was 34%. It also gave an inhibition at 0.1 µM (ACVR2B) of 17%, an inhibition at 0.1 µM (WNK2) of 17% and an inhibition at 0.1 µM (MELK) of 15%. For the same molecule, the inhibition at 0.1 µM (CAMK2B) was 12%, the inhibition at 0.1 µM (PRKCG) was 11% and the inhibition at 0.1 µM (SLK) was 10%. For the same molecule, the inhibition at 0.1 µM (PRKCA) was 8%, the inhibition at 0.1 µM (ABL1_E255K) was 7% and the inhibition at 0.1 µM (MAP2K2) was 7%. It also gave an inhibition at 0.1 µM (DDR2) of 6%, an inhibition at 0.1 µM (MET_D1228N) of 6% and an inhibition at 0.1 µM (STK39) of 5%. The inhibition at 0.1 µM (LCK) was 4%, the inhibition at 0.1 µM (LIMK2) was 2% and the inhibition at 0.1 µM (CDK1_cyclinA2) was 1%. For the same molecule, the inhibition at 0.1 µM (ABL1_Q252H) was 1%, the inhibition at 0.1 µM (MAPK14) was 1% and the inhibition at 0.1 µM (ABL1) was 0%. For the same molecule, the inhibition at 0.1 µM (MAPK1) was -1%, the inhibition at 0.1 µM (BRSK1) was -1% and the inhibition at 0.1 µM (FRAP1) was -1%. The inhibition at 0.1 µM (CDK5_p25) was -2%, the inhibition at 0.1 µM (CHEK2) was -3% and the inhibition at 0.1 µM (TLK2) was -5%. It also gave an inhibition at 0.1 µM (PRKCB1_I) of -5%, an inhibition at 0.1 µM (FRK) of -5% and an inhibition at 0.1 µM (TSSK1B) of -5%. The inhibition at 0.1 µM (PRKG1) was -6%, the inhibition at 0.1 µM (DYRK1B) was -6% and the inhibition at 0.1 µM (PDK1) was -7%. The inhibition at 0.1 µM (CHEK1) was -8%, the inhibition at 0.1 µM (MAPK8) was -9% and the inhibition at 0.1 µM (MERTK) was -10%. The inhibition at 0.1 µM (RPS6KA3) was -12%, the inhibition at 0.1 µM (EGFR) was -14% and the inhibition at 0.1 µM (EGFR_S752-I759del) was -15%. The inhibition at 0.1 µM (ALK_F1174S) was -18%, the inhibition at 0.1 µM (FES) was -26% and the inhibition at 0.1 µM (TEK_Y897S) was -31%.
